Results as given in PubChem BioAssay AID248 (DTP/NCI, 2004).
Inconclusive results and toxic doses are left out. Square brackets hold non-standard residues; d marks the D form. Peptide text beside a SMILES is read from it. * marks the point of attachment. ξ: configuration not given here. Cbz = O=C(OCc1ccccc1)*; ξL = CC(C)CC(N)C(=O)O; OBn = c1ccc(CO*)cc1

Test system: L1210 leukemia ip in BDF1 mice, survival T/C
Assay: NCI In Vivo Anticancer Drug Screen. Data for tumor model L1210 Leukemia (intraperitoneal) in B6D2F1 (BDF1) mice
Conditions: endpoint: mean survival time, higher = longer survival
How it was run: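 Value reflects the ratio of survival in compound-treated mice to survival in vehicle-treated controls, with both groups carrying the same transplanted tumor.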

[1] = dose: 100.0 mg/kg/injection, schedule: Q01DX009 (ip), vehicle: saline with Tween-80
[2] = dose: 200.0 mg/kg/injection, schedule: Q01DX009 (ip), vehicle: saline with Tween-80
[3] = dose: 400.0 mg/kg/injection, schedule: Q01DX009 (ip), vehicle: saline with Tween-80
[4] = dose: 100.0 mg/kg/injection, schedule: Q01DX009 (ip), vehicle: Klucel (hydroxypropylcellulose) (HPC)
[5] = dose: 100.0 mg/kg/injection, schedule: Q04DX003 (ip), vehicle: Klucel (hydroxypropylcellulose) (HPC)
[6] = dose: 200.0 mg/kg/injection, schedule: Q01DX009 (ip), vehicle: Klucel (hydroxypropylcellulose) (HPC)
[7] = dose: 200.0 mg/kg/injection, schedule: Q04DX003 (ip), vehicle: Klucel (hydroxypropylcellulose) (HPC)
[8] = dose: 400.0 mg/kg/injection, schedule: Q04DX003 (ip), vehicle: Klucel (hydroxypropylcellulose) (HPC)
[9] = dose: 100.0 mg/kg/injection, schedule: Q01DX001 (ip), vehicle: saline
[10] = dose: 200.0 mg/kg/injection, schedule: Q01DX001 (ip), vehicle: saline
[11] = dose: 400.0 mg/kg/injection, schedule: Q01DX001 (ip), vehicle: saline
[12] = dose: 100.0 mg/kg/injection, schedule: Q04DX003 (ip), vehicle: saline
[13] = dose: 400.0 mg/kg/injection, schedule: Q01DX009 (ip), vehicle: Klucel (hydroxypropylcellulose) (HPC)

SMILES: CCCC(C)C(C(=O)O)c1ccccc1 (stereo unspecified)
- T/C [1]: 102 % of control
- T/C (dose: 100.0 mg/kg/injection, schedule: Q04DX003 (ip), vehicle: saline with Tween-80): 117 % of control
- T/C [2]: 104 % of control
- T/C (dose: 200.0 mg/kg/injection, schedule: Q04DX003 (ip), vehicle: saline with Tween-80): 100 % of control
- T/C [3]: 100 % of control
- T/C (dose: 400.0 mg/kg/injection, schedule: Q04DX003 (ip), vehicle: saline with Tween-80): 99 % of control

SMILES: C=CCc1ccc(OCCNC(=O)Nc2ccc(C)cc2[N+](=O)[O-])c(OC)c1
- T/C (dose: 50.0 mg/kg/injection, schedule: Q01DX009 (ip), vehicle: Klucel (hydroxypropylcellulose) (HPC)): 87 % of control
- T/C [4]: 98 % of control
- T/C [5]: 91 % of control
- T/C [6]: 98 % of control
- T/C [7]: 96 % of control
- T/C [8]: 96 % of control

SMILES: NC(N)=N/N=C/c1cccc2ccccc12
- T/C (dose: 3.8 mg/kg/injection, schedule: Q01DX Z (ip), vehicle: other): 102 % of control
- T/C (dose: 6.25 mg/kg/injection, schedule: Q01DX009 (ip), vehicle: saline): 95 % of control
- T/C (dose: 6.25 mg/kg/injection, schedule: Q04DX003 (ip), vehicle: Klucel (hydroxypropylcellulose) (HPC)): 104 % of control
- T/C (dose: 7.5 mg/kg/injection, schedule: Q01DX Z (ip), vehicle: other): 97 % of control
- T/C (dose: 12.5 mg/kg/injection, schedule: Q01DX009 (ip), vehicle: saline): 98 % of control
- T/C (dose: 12.5 mg/kg/injection, schedule: Q04DX003 (ip), vehicle: Klucel (hydroxypropylcellulose) (HPC)): 100 % of control
- T/C (dose: 15.0 mg/kg/injection, schedule: Q01DX Z (ip), vehicle: other): 105 % of control
- T/C (dose: 25.0 mg/kg/injection, schedule: Q01DX009 (ip), vehicle: saline): 88 % of control
- T/C (dose: 25.0 mg/kg/injection, schedule: Q04DX003 (ip), vehicle: Klucel (hydroxypropylcellulose) (HPC)): 104 % of control
- T/C (dose: 30.0 mg/kg/injection, schedule: Q01DX Z (ip), vehicle: other): 94 % of control

SMILES: O=C(c1ccc2cc(Cl)c3ccccc3c2c1)C(Br)CBr (stereo unspecified)
- T/C (dose: 55.0 mg/kg/injection, schedule: Q01DX Z (ip), vehicle: methylcellulose (MC)): 88 % of control
- T/C (dose: 83.0 mg/kg/injection, schedule: Q01DX Z (ip), vehicle: methylcellulose (MC)): 93 % of control
- T/C (dose: 125.0 mg/kg/injection, schedule: Q01DX Z (ip), vehicle: methylcellulose (MC)): 93 % of control

SMILES: COP1(=O)OCC(C)CO1 (stereo unspecified)
- T/C [9]: 102 % of control
- T/C [10]: 93 % of control
- T/C [11]: 98 % of control

SMILES: CC(C)CC(NC(=O)CNC(=O)CNC(=O)OCc1ccccc1)C(=O)OCc1ccccc1 (stereo not drawn) (Cbz-Gly-Gly-[ξL]-OBn)
- T/C [5]: 94 % of control
- T/C [7]: 96 % of control
- T/C [8]: 100 % of control

SMILES: O=C[C@@H](CO)O[C@H](C=O)c1c[nH]c(=O)[nH]c1=O
- T/C (dose: 66.0 mg/kg/injection, schedule: Q03DX003 (ip), vehicle: saline): 213 % of control
- T/C (dose: 80.0 mg/kg/injection, schedule: Q04DX003 (ip), vehicle: saline): 168 % of control
- T/C [12]: 209 % of control
- T/C (dose: 120.0 mg/kg/injection, schedule: Q04DX003 (ip), vehicle: saline): 252 % of control
- T/C (dose: 140.0 mg/kg/injection, schedule: Q04DX003 (ip), vehicle: saline): 204 % of control
- T/C (dose: 150.0 mg/kg/injection, schedule: Q03DX003 (ip), vehicle: saline): 217 % of control

SMILES: CO[Si](C)(C)C
- T/C [9]: 98 % of control
- T/C [10]: 98 % of control
- T/C [11]: 100 % of control

SMILES: O=C(OC/C(=C\Cl)OC(=O)c1ccc([N+](=O)[O-])cc1)c1ccc([N+](=O)[O-])cc1
- T/C [4]: 100 % of control
- T/C [6]: 105 % of control
- T/C [13]: 100 % of control

SMILES: CSc1ccc(NC(=O)Nc2ccccc2C)cc1
- T/C [4]: 100 % of control
- T/C [5]: 93 % of control
- T/C [6]: 94 % of control
- T/C [7]: 95 % of control
- T/C [13]: 96 % of control
- T/C [8]: 88 % of control

SMILES: COc1ccc(-c2cc(Cl)c([N+](=O)[O-])cc2[N+](=O)[O-])cc1
- T/C (dose: 50.0 mg/kg/injection, schedule: Q01DX001 (ip), vehicle: carboxymethylcellulose (CMC)): 100 % of control
- T/C (dose: 100.0 mg/kg/injection, schedule: Q01DX001 (ip), vehicle: carboxymethylcellulose (CMC)): 107 % of control
- T/C (dose: 200.0 mg/kg/injection, schedule: Q01DX001 (ip), vehicle: carboxymethylcellulose (CMC)): 110 % of control
- T/C (dose: 400.0 mg/kg/injection, schedule: Q01DX001 (ip), vehicle: carboxymethylcellulose (CMC)): 102 % of control

SMILES: CCCCNC(=S)N/N=C/c1ccccn1
- T/C [5]: 90 % of control
- T/C [7]: 97 % of control

SMILES: O=C1NC2(CCC(O)CC2)C(O)(c2ccccc2)C12CCCCC2 (stereo unspecified)
- T/C (dose: 75.0 mg/kg/injection, schedule: Q01DX001 (ip), vehicle: saline): 105 % of control
- T/C (dose: 150.0 mg/kg/injection, schedule: Q01DX001 (ip), vehicle: saline): 86 % of control
- T/C (dose: 300.0 mg/kg/injection, schedule: Q01DX001 (ip), vehicle: saline): 86 % of control

SMILES: COC(=O)c1cccc(OC)c1I
- T/C (dose: 50.0 mg/kg/injection, schedule: Q04DX003 (ip), vehicle: Klucel (hydroxypropylcellulose) (HPC)): 98 % of control
- T/C [5]: 106 % of control
- T/C [7]: 103 % of control

SMILES: CCN(CC)CCSC(=O)C(O)(c1ccccc1)C1CCCCC1 (stereo unspecified)
- T/C (dose: 75.0 mg/kg/injection, schedule: Q01DX001 (ip), vehicle: other): 100 % of control

SMILES: COc1ccccc1/C=N\N=C(N/N=C/c1ccccc1OC)N/N=C/c1ccccc1OC
- T/C (dose: 15.0 mg/kg/injection, schedule: Q01DX Z (ip), vehicle: methylcellulose (MC)): 96 % of control
- T/C (dose: 30.0 mg/kg/injection, schedule: Q01DX Z (ip), vehicle: methylcellulose (MC)): 108 % of control
- T/C (dose: 60.0 mg/kg/injection, schedule: Q01DX Z (ip), vehicle: methylcellulose (MC)): 101 % of control
- T/C (dose: 60.0 mg/kg/injection, schedule: Q01DX Z (oral), vehicle: methylcellulose (MC)): 102 % of control
- T/C (dose: 120.0 mg/kg/injection, schedule: Q01DX Z (ip), vehicle: methylcellulose (MC)): 102 % of control
- T/C (dose: 120.0 mg/kg/injection, schedule: Q01DX Z (oral), vehicle: methylcellulose (MC)): 100 % of control
- T/C (dose: 240.0 mg/kg/injection, schedule: Q01DX Z (ip), vehicle: methylcellulose (MC)): 97 % of control
- T/C (dose: 325.0 mg/kg/injection, schedule: Q01DX Z (oral), vehicle: methylcellulose (MC)): 86 % of control
- T/C (dose: 360.0 mg/kg/injection, schedule: Q01DX Z (ip), vehicle: methylcellulose (MC)): 100 % of control
- T/C (dose: 480.0 mg/kg/injection, schedule: Q01DX Z (ip), vehicle: methylcellulose (MC)): 110 % of control
- T/C (dose: 480.0 mg/kg/injection, schedule: Q01DX Z (oral), vehicle: methylcellulose (MC)): 104 % of control
- T/C (dose: 675.0 mg/kg/injection, schedule: Q01DX Z (oral), vehicle: methylcellulose (MC)): 108 % of control

SMILES: N#Cc1ccc(CCc2ccc(Cl)cc2)cc1
- T/C (dose: 50.0 mg/kg/injection, schedule: Q01DX001 (ip), vehicle: saline): 94 % of control
- T/C [9]: 95 % of control
- T/C [10]: 101 % of control
- T/C [11]: 92 % of control

SMILES: CC(C(=O)O)C(C)(O)C(C)(C)C (stereo unspecified)
- T/C (dose: 100.0 mg/kg/injection, schedule: Q04DX002 (ip), vehicle: saline): 104 % of control
- T/C (dose: 200.0 mg/kg/injection, schedule: Q04DX002 (ip), vehicle: saline): 97 % of control
- T/C (dose: 400.0 mg/kg/injection, schedule: Q04DX002 (ip), vehicle: saline): 108 % of control

SMILES: Cc1cc(=O)[nH]c2c(C)cc(-c3cc(C)c4[nH]c(=O)cc(C)c4c3)cc12
- T/C [1]: 101 % of control
- T/C [12]: 98 % of control
- T/C [2]: 97 % of control
- T/C (dose: 200.0 mg/kg/injection, schedule: Q04DX003 (ip), vehicle: saline): 91 % of control
- T/C [3]: 92 % of control
- T/C (dose: 400.0 mg/kg/injection, schedule: Q04DX003 (ip), vehicle: saline): 98 % of control

SMILES: O=S1(=O)CCCCc2c1ccc1ccccc21
- T/C [9]: 101 % of control
- T/C [10]: 90 % of control
- T/C [11]: 106 % of control

SMILES: Cc1ccc(-c2cc(-c3ccccc3)no2)cc1
- T/C [4]: 97 % of control
- T/C [5]: 102 % of control
- T/C [6]: 95 % of control
- T/C [7]: 102 % of control
- T/C [13]: 95 % of control
- T/C [8]: 93 % of control
